Data taken from patent publication US9265761B2, “Compositions and methods for treating purpura” (ALLERGAN, INC., priority 2007, dated 2016).
Where a name gives a salt, the structure may show the parent alone. Read-outs that look alike come from different tables or passages of the source.

How the values were obtained:
laser-induced purpura = assay: Prevention of laser-induced purpura, topical pretreatment before laser (Example 2); assay type: in vivo, human; conditions: topical application 3 hours and 1 hour prior to laser; oxymetazoline HCl 0.05%, naphazoline HCl 0.03%, tetrahydrozoline HCl 0.05%, phenylephrine HCl 1.0%, brimonidine tartrate 0.2%
Excerpt: In order to evaluate the effect of topically applied α1 and α2 adrenergic agonists on the prevention of laser-induced purpura on normal non-actinically damaged skin, seven sites on the trunk of a volunteer were marked and treated with the topical application of a commercially available α1 and/or α2 agonist preparation. Six (of the seven) marked sites were pretreated with the topical application of at least one of the testing preparations. The preparations were applied to the skin and gently rubbed on the skin over and immediately surrounding the laser treatment sites 3 hours prior to and 1 hour prior to the delivery of the laser energy. The applied solution was allowed to air-dry without any dressing. […] After the delivery of the laser energy, each spot received only topical petrolatum jelly 3-4 times/day and no additional application of any testing compound. The sites were followed clinically and photographically 1, 3, 4, 6, 11 and 13 days after the creation of the purpura. The evaluated compounds were:
Site 8: Oxymetazoline hydrochloride (0.05%): A solution of oxymetazoline hydrochloride 0.05% (Afrin® Original 12 Hour Nasal Spray (Schering-Plough Healthcare Products) containing: oxymetazoline hydrochloride 0.05%, benzalkonium chloride solution, edetate disodium, polyethylene glycol, povidone, propylene glycol, purified water, sodium phosphate dibasic, sodium phosphate monobasic.
Site 9: Naphazoline hydrochloride (0.03%): A solution of naphazoline hydrochloride 0.03% (Clear Eyes® Maximum Redness Relief (Prestige Brands Inc.) containing: naphazoline hydrochloride 0.03%, glycerin 0.5%, benzalkonium chloride, boric acid, edetate disodium, purified water, sodium borate).
Site 10: Tetrahydrozoline hydrochloride (0.05%): A solution of tetrahydrozoline hydrochloride 0.05% (Visine® Original (Pfizer Consumer Healthcare) containing: tetrahydrozoline hydrochloride 0.05%, benzalkonium chloride, boric acid, edetate disodium, purified water, sodium borate, sodium chloride).
Site 11: Phenylephrine hydrochloride (1.0%): A solution of phenylephrine hydrochloride 1.0% (Neo-Synephrine® Extra Strength Spray (Bayer HealthCare) containing: phenylephrine hydrochloride 1.0%, anhydrous citric acid, benzalkonium chloride, sodium chloride, sodium citrate, water).
Site 14: No treatment after laser light delivered. (“Control”)

purpura = assay: Resolution of pulsed-dye laser induced purpura, topical application after laser (Example 1); assay type: in vivo, human; conditions: commercial solutions applied topically every 6-8 hours after pulsed-dye laser (585 nm), trunk of a volunteer, followed 1-13 days; oxymetazoline HCl 0.05%, naphazoline HCl 0.03%, tetrahydrozoline HCl 0.05%, phenylephrine HCl 1.0%, brimonidine tartrate 0.2%
Excerpt: The applied solution was allowed to air-dry without any dressing. […] The evaluated compounds were:
The sites were followed clinically and photographically 1, 3, 4, 6, 11 and 13 days after the creation of the purpura.

solar purpura [1] = assay: Treatment and prevention of solar purpura with topical α1 adrenergic agonist (Example 4); assay type: in vivo, human
Experimental: Subject 1 is a person with a long-standing history of solar purpura on their forearms. The test area comprised the left dorsal (extensor) forearm from the wrist to the elbow. Pretreatment photos were taken and baseline measurements of the solar purpura on the left extensor forearm from the wrist to the elbow were measured. […] The total area of purpura was 8.94 cm^2. (SEE TABLE 2)
(§1) A solution of oxymetazoline hydrochloride 0.05% (Afrin® Original 12 Hour Nasal Spray (Schering-Plough Healthcare Products) containing: oxymetazoline hydrochloride 0.05%, benzalkonium chloride solution, edetate disodium, polyethylene glycol, povidone, propylene glycol, purified water, sodium phosphate dibasic, sodium phosphate monobasic (0.005%)) was applied by the patient to the left dorsal forearm twice daily (morning and evening). […] The sites were followed clinically and photographically.
Subject 2 is a person with a long history of cosmetically disturbing solar purpura on their forearms who wanted to improve the appearance solar (decrease the purpura). The test area comprised the left dorsal (extensor) forearm from the wrist to the elbow. Pretreatment photos were taken and baseline measurements of the solar purpura on the left extensor forearm from the wrist to the elbow were measured. […] The total area of purpura was 1.72 cm^2. (SEE TABLE 3)
as §1, with “once” for “twice”, “(morning).” for “(morning and evening).”

solar purpura [2] = conditions: for Effect: decrease of purpura area compared to mean baseline / Purpura Area / Effect: increase of purpura area compared to mean baseline: 0.2% solution twice daily; for Effect: decrease of purpura area compared to mean baseline / Purpura Area: right dorsal forearm; for Purpura Area: mean baseline 3.67 cm^2; for Effect: increase of purpura area compared to mean baseline: day 24, increase in purpura noted after gardening
Excerpt: The use of a topically applied α2 adrenergic agonist for the treatment and prevention of solar purpura (“actinic purpura”, “Bateman's purpura”): In order to evaluate the effect of topically applied α1 and α2 adrenergic agonists on the prevention and treatment of solar purpura, a volunteer with a diagnosis of solar purpura of the forearms treated with a topically applied α2 adrenergic agonist containing solution. The test area comprised the right extensor forearm from the wrist to the elbow. Photos were taken and baseline scores for the solar purpura on their right dorsal forearm from the wrist to the elbow were measured 6 times over a 91 day period before initiating treatment. Two measurements were taken to approximate the area of each purpuric patch.
The solution was applied with a cotton ball to the skin of the entire right extensor forearm from the wrist to the elbow. The sites were followed clinically and photographically.

[3] = Subject 1, 0.05% solution twice daily
[4] = Subject 2, 0.05% solution once daily

Molecule: c1ccc2c(c1)CCCC2C1=NCCN1 (centres unmarked) [tetrahydrozoline hydrochloride]
- how pronounced the effect of pretreatment was (smaller purpuric macule/patch, shortened resolution) (laser-induced purpura): more pronounced

Molecule: Cc1cc(C(C)(C)C)c(O)c(C)c1CC1=NCCN1 [oxymetazoline hydrochloride]
- resolution of the purpura compared with non-treated control site (purpura): most pronounced
- how pronounced the effect of pretreatment was (smaller purpuric macule/patch, shortened resolution) (laser-induced purpura): more pronounced
- Purpura Area (solar purpura [1]; Subject 1, day 17, 0.05% solution twice daily, left extensor forearm, baseline 8.94 cm^2): 9.95 cm^2
- Effect: increase of purpura area compared to baseline (solar purpura [1]; Subject 1, day 17, 0.05% solution twice daily, hydrochloride): ↑ 11% from Baseline
- Effect: increase of purpura area compared to baseline (solar purpura [1]; Subject 1, day 17, 0.05% solution twice daily, listed as oxymetazoline, hydrochloride): 11%
- Purpura Area (solar purpura [1]; Subject 1, day 29, 0.05% solution twice daily, baseline 8.94 cm^2): 5.73 cm^2
- Effect: decrease of purpura area compared to baseline (solar purpura [1]; Subject 1, day 29, 0.05% solution twice daily, hydrochloride): ↓ 36% from Baseline
- Effect: decrease of purpura area compared to baseline (solar purpura [1]; Subject 1, day 29, 0.05% solution twice daily, listed as oxymetazoline, hydrochloride): 36%
- Purpura Area (solar purpura [1]; Subject 1, day 44, 0.05% solution twice daily, baseline 8.94 cm^2): 5.6 cm^2
- Effect: decrease of purpura area compared to baseline (solar purpura [1]; Subject 1, day 44, 0.05% solution twice daily, hydrochloride): ↓ 37% from Baseline
- Effect: decrease of purpura area compared to baseline (solar purpura [1]; Subject 1, day 44, 0.05% solution twice daily, listed as oxymetazoline, hydrochloride): 37%
- Purpura Area (solar purpura [1]; Subject 1, day 81, 0.05% solution twice daily, baseline 8.94 cm^2): 1.44 cm^2
- Effect: decrease of purpura area compared to baseline (solar purpura [1]; Subject 1, day 81, 0.05% solution twice daily, hydrochloride): ↓ 84% from Baseline
- Effect: decrease of purpura area compared to baseline (solar purpura [1]; Subject 1, day 81, 0.05% solution twice daily, listed as oxymetazoline, hydrochloride): 84%
- Purpura Area (solar purpura [1]; Subject 1, day 91 (medication discontinued day 91), 0.05% solution twice daily, baseline 8.94 cm^2): 0.42 cm^2
- Effect: decrease of purpura area compared to baseline (solar purpura [1]; Subject 1, day 91, 0.05% solution twice daily, hydrochloride): ↓ 95% from Baseline
- Effect: decrease of purpura area compared to baseline (solar purpura [1]; Subject 1, day 91, 0.05% solution twice daily, listed as oxymetazoline, hydrochloride): 95%
- Purpura Area (solar purpura [1]; Subject 1, day 98, 7 days off medication, day 91 value 0.42 cm^2): 1.96 cm^2
- Effect: increase of purpura area (table: from Baseline; text: from day 91 measurement) (solar purpura [1]; Subject 1, day 98, 7 days off medication, hydrochloride): ↑ 366% from Baseline
- Effect: increase of purpura area (table: from Baseline; text: from day 91 measurement) (solar purpura [1]; Subject 1, day 98, 7 days off medication, listed as oxymetazoline, hydrochloride): 366%
- Purpura Area (solar purpura [1]; Subject 1, day 112, 14 days off medication, day 91 value 0.42 cm^2): 0.46 cm^2
- Effect: increase of purpura area (table: from Baseline; text: from day 91 measurement) (solar purpura [1]; Subject 1, day 112, 14 days off medication, hydrochloride): ↑ 10% from Baseline
- Effect: increase of purpura area (table: from Baseline; text: from day 91 measurement) (solar purpura [1]; Subject 1, day 112, 14 days off medication, listed as oxymetazoline, hydrochloride): 10%
- Purpura Area (solar purpura [1]; Subject 1, day 122, 24 days off medication, day 91 value 0.42 cm^2): 2.22 cm^2
- Effect: increase of purpura area (table: from Baseline; text: from day 91 measurement) (solar purpura [1]; Subject 1, day 122, 24 days off medication, hydrochloride): ↑ 428% from Baseline
- Effect: increase of purpura area (table: from Baseline; text: from day 91 measurement) (solar purpura [1]; Subject 1, day 122, 24 days off medication, listed as oxymetazoline, hydrochloride): 428%
- patient's impression: new purpuric macules/patches while using the medication (solar purpura [1]; [3]): fewer new purpuric macules/patches
- patient's impression: resolution of purpura that occurred (solar purpura [1]; [3]): resolve more quickly
- side effects, local or systemic, during the treatment (solar purpura [1]; Subject 1, 0.05% solution twice daily, 91 days): no side effects, either local or systemic
- Purpura Area (solar purpura [1]; Subject 2, day 7, 0.05% solution once daily, left extensor forearm, baseline 1.72 cm^2, hydrochloride): 0.00 cm^2
- Purpura Area (solar purpura [1]; Subject 2, day 7, 0.05% solution once daily, left extensor forearm, baseline 1.72 cm^2, listed as oxymetazoline, hydrochloride): 0 cm^2
- Effect: decrease of purpura area compared to baseline (solar purpura [1]; Subject 2, day 7, 0.05% solution once daily, hydrochloride): ↓ 100% from Baseline
- Effect: decrease of purpura area compared to baseline (solar purpura [1]; Subject 2, day 7, 0.05% solution once daily, listed as oxymetazoline, hydrochloride): 100%
- Purpura Area (solar purpura [1]; Subject 2, day 31, 0.05% solution once daily, baseline 1.72 cm^2, hydrochloride): 0.00 cm^2
- Purpura Area (solar purpura [1]; Subject 2, day 31, 0.05% solution once daily, baseline 1.72 cm^2, listed as oxymetazoline, hydrochloride): 0 cm^2
- Effect: decrease of purpura area compared to baseline (solar purpura [1]; Subject 2, day 31, 0.05% solution once daily, hydrochloride): ↓ 100% from Baseline
- Effect: decrease of purpura area compared to baseline (solar purpura [1]; Subject 2, day 31, 0.05% solution once daily, listed as oxymetazoline, hydrochloride): 100%
- Purpura Area (solar purpura [1]; Subject 2, day 36, 0.05% solution once daily, baseline 1.72 cm^2): 0.36 cm^2
- patient's impression: new purpuric patches while using the medication (solar purpura [1]; [4]): fewer new purpuric patches
- patient's impression: resolution of purpura that occurred (solar purpura [1]; [4]): resolve more quickly
- side effects, local or systemic, during the treatment (solar purpura [1]; [4]): no side effects, either local or systemic
- overall outcome of the trials on solar purpura (solar purpura [1]; topically applied once or twice daily, two subjects): dramatically reduces the size and appearance of purpuric macules/patches and may eliminate them

Molecule: c1ccc2c(CC3=NCCN3)cccc2c1 [naphazoline hydrochloride]
- resolution of the purpura compared with non-treated control site (purpura): most pronounced
- how pronounced the effect of pretreatment was (smaller purpuric macule/patch, shortened resolution) (laser-induced purpura): more pronounced

Molecule: CNC[C@H](O)c1cccc(O)c1 [phenylephrine hydrochloride]
- resolution of the purpura compared with non-treated control site (purpura): most pronounced
- how pronounced the effect of pretreatment was (smaller purpuric macule/patch, shortened resolution) (laser-induced purpura): more pronounced

Molecule: brimonidine tartrate
- how pronounced the effect of pretreatment was (smaller purpuric macule/patch, shortened resolution) (laser-induced purpura): less pronounced
- overall outcome of the trial on solar purpura (solar purpura [2]; 0.2% topically applied twice daily): reduces the size and appearance of purpuric macules/patches
- Effect: decrease of purpura area compared to mean baseline (solar purpura [2]; day 7): ↓ 60% from Baseline
- Purpura Area (solar purpura [2]; day 7, person): 1.48 cm^2
- Effect: decrease of purpura area compared to mean baseline (solar purpura [2]; day 7, listed as brimonidine): 60%
- Effect: decrease of purpura area compared to mean baseline (solar purpura [2]; day 14): ↓ 90% from Baseline
- Effect: decrease of purpura area compared to mean baseline (solar purpura [2]; day 14, listed as brimonidine): 90%
- Purpura Area (solar purpura [2]; day 14): 0.35 cm^2
- Purpura Area (solar purpura [2]; day 24, after gardening): 5.72 cm^2
- Effect: increase of purpura area compared to mean baseline (solar purpura [2]): ↑ 34% from Baseline
- Effect: increase of purpura area compared to mean baseline (solar purpura [2]; listed as brimonidine): 34%
- Purpura Area (solar purpura [2]; day 36): 2.52 cm^2
